Values of other authors in patent publication US20120148512A1, “Method for Increasing the Sun Protection Factor of a Cosmetic and/or Dermatological Preparation” (BASF SE, priority 2006, published 2012).

absorption retained in the absorption maximum (following sun-simulated irradiation (5 and 10 MED)) | photostability (filter substance on its own) | SMILES
more than 90% |  | O=S(=O)(O)c1ccc2nc(-c3ccccc3)[nH]c2c1 [2-phenylbenzimidazole-5-sulfonic acid]
 | not photostable | COc1ccc(C(=O)CC(=O)c2ccc(C(C)(C)C)cc2)cc1 [BMDBM, 4-(tert-butyl)-4′-methoxydibenzoylmethane]
